Reference: ChEMBL document CHEMBL3991601, “The target landscape of clinical kinase drugs” (Science, 2017)
Active and inactive are the calls of the source.

Assays:
[1] = biological target: T1, ATP-dependent RNA helicase DDX42 (Homo sapiens, UniProt Q86XP3)
T1 sequence (Q86XP3 whole entry): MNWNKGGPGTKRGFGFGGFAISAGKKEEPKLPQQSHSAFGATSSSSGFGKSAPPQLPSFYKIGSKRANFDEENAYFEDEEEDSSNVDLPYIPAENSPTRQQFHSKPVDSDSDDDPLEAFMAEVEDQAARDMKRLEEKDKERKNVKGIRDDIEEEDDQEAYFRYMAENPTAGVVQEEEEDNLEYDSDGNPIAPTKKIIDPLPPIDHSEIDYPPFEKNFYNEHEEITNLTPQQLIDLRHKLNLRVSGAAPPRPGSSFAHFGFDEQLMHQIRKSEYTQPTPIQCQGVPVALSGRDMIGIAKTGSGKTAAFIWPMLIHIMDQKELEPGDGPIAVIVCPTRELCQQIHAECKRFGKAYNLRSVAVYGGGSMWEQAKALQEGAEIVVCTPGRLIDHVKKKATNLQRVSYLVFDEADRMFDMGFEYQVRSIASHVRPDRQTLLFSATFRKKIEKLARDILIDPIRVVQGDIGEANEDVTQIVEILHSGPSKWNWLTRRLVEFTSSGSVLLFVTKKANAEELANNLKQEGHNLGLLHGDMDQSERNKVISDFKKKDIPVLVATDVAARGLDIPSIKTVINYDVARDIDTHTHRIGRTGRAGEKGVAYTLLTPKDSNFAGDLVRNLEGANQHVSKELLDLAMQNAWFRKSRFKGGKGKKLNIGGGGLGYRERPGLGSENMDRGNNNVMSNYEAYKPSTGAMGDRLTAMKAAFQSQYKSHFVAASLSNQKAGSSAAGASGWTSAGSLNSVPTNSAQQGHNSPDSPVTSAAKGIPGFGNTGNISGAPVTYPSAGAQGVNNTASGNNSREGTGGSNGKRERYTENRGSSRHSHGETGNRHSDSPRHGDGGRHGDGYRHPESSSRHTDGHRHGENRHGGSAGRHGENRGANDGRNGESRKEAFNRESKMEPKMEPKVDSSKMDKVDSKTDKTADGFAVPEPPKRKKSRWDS

[2] = biological target: Protein kinase C alpha type (Homo sapiens, UniProt P17252)
[3] = biological target: Inosine-5'-monophosphate dehydrogenase 2 (Homo sapiens, UniProt P12268)
dCTP pyrophosphatase 1 = biological target: T2, dCTP pyrophosphatase 1 (Homo sapiens, UniProt Q9H773)
T2 sequence (Q9H773 whole entry): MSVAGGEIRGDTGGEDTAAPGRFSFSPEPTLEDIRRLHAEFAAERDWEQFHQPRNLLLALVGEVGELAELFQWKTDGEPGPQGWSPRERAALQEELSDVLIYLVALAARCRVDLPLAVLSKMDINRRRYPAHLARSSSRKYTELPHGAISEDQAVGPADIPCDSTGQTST

[4] = biological target: T3, Acyl-CoA dehydrogenase family member 10 (Homo sapiens, UniProt Q6JQN1)
T3 sequence (Q6JQN1 whole entry): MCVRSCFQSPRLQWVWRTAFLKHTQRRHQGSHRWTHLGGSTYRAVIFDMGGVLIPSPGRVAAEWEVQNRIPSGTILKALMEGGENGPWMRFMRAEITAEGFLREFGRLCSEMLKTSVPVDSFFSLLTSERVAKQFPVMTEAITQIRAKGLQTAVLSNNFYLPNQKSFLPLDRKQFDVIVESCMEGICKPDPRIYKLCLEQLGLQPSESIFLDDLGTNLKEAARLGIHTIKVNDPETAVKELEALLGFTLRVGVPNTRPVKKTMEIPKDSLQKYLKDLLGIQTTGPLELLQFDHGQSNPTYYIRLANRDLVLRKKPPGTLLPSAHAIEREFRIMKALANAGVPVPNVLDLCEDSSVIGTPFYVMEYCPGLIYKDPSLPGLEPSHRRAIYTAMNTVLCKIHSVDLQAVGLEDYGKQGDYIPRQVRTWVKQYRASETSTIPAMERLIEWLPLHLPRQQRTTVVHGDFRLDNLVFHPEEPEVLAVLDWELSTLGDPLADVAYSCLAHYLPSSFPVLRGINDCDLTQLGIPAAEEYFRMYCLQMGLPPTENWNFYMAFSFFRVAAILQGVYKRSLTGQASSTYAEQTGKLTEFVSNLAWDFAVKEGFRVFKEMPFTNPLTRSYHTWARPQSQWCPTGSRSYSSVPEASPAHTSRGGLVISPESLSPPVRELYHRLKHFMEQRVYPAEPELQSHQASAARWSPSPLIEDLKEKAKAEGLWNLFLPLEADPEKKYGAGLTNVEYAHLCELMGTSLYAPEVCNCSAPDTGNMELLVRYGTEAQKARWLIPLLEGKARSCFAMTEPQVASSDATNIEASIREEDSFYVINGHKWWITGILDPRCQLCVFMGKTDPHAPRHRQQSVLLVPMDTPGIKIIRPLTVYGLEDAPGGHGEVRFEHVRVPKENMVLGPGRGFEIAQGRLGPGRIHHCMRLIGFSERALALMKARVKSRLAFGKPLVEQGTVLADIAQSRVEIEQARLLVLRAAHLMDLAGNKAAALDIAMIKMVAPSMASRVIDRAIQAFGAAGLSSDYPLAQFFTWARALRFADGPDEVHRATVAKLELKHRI

[5] = biological target: T4, ATP-dependent 6-phosphofructokinase, platelet type (Homo sapiens, UniProt Q01813)
T4 sequence (Q01813 whole entry): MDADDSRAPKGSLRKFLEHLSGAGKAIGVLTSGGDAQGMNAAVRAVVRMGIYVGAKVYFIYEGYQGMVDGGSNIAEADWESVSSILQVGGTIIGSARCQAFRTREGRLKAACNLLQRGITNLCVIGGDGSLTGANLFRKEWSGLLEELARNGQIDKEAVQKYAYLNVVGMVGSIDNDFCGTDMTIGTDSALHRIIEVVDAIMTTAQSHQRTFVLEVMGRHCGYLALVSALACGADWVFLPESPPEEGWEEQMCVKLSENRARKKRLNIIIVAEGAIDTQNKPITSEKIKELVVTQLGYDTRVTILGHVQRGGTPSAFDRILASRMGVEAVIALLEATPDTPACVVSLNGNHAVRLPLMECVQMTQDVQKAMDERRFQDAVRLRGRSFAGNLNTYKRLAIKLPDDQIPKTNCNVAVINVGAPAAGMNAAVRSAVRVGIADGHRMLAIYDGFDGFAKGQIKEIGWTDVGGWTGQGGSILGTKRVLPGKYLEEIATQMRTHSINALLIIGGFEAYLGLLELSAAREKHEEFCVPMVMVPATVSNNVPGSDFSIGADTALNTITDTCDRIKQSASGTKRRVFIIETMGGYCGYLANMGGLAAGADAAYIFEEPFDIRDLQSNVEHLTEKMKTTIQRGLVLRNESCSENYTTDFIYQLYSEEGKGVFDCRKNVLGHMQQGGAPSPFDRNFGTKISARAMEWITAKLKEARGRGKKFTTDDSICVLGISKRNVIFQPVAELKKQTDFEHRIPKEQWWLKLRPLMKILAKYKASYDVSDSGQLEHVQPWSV

Measured: Kd
Also: in the data inactive means no Kd found up to 30 µM.

NC(=O)c1ccc(N(C(N)=O)c2c(F)cccc2F)nc1-c1ccc(F)cc1F [VX-702]
inactive: [1] > 30 µM | [2] > 30 µM | [3] > 30 µM | dCTP pyrophosphatase 1 > 30 µM | [4] > 30 µM | [5] > 30 µM
